# Experiments:
# Test in all cases: fluorogenic activity assay
# Assay type in all cases: biochemical
# active caspase-8 = active caspase-8 (Homo sapiens, UniProt Q14790); settings: 1 h pre-incubation; PBS
# activeCASP10 = target: T1, activeCASP10 (Homo sapiens, UniProt Q92851); settings: 333 nM enzyme; 1 h pre-incubation; PBS with 333 mM citrate
# T1 sequence (Q92851 220-415): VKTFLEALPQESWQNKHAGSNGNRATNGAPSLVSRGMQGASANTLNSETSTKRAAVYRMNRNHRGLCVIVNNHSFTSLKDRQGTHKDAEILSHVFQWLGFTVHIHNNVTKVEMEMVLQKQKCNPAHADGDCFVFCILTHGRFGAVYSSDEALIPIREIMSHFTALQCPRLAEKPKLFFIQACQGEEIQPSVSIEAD
# T1 sequence (Q92851 416-521): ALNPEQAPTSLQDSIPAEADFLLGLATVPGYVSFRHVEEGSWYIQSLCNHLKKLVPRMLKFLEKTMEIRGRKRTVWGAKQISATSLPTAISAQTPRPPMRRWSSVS
# activeCASP-3 = target: T2, activeCASP-3 (Homo sapiens, UniProt P42574); settings: 0.3 μM enzyme; 1 h pre-incubation; PBS
# T2 sequence (P42574 29-175): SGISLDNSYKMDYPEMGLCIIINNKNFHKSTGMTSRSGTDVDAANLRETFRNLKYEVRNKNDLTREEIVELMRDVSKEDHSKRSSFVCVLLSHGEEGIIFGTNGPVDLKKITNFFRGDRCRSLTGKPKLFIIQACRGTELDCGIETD
# T2 sequence (P42574 176-277): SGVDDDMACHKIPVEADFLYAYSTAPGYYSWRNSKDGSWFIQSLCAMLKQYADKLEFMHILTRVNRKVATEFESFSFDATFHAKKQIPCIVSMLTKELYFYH
# Sequence of active caspase-8 (Q14790 217-374): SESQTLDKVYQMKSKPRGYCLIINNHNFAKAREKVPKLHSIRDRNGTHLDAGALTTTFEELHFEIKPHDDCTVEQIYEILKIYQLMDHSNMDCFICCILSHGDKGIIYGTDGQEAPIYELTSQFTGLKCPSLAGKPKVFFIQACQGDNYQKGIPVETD
# Sequence of active caspase-8 (Q14790 385-479): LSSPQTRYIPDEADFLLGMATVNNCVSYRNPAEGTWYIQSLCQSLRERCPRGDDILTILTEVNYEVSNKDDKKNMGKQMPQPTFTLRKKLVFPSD
smiles,measurement,setting,value
"NS(=O)(=O)C#Cc1ccccc1 [PFTμ, pifithrin-μ]",Relative activity,active caspase-8,PFTμ also significantly inhibited active caspase-3 and active caspase-8
same,Relative activity,activeCASP10,we found that PFTμ inhibited both proteoforms to some degree
same,Relative activity,activeCASP-3,PFTμ also significantly inhibited active caspase-3 and active caspase-8

# Reference: publication PMC11854450 (RSC Chemical Biology, 2025)
